In the NIST ThermoML archive (doi:10.1021/acs.jced.6b00526):

Assay: xn = mol fraction of the nth substance listed
Details: 100 kPa, Liquid; for mass density: Vibrating tube method; for viscosity: Falling or rolling sphere viscometry

OCCO [1,2-ethanediol] + O
Details | mass density, 288.15 K [kg/m3] | mass density, 293.15 K [kg/m3] | mass density, 298.15 K [kg/m3] | mass density, 303.15 K [kg/m3] | mass density, 308.15 K [kg/m3] | mass density, 313.15 K [kg/m3] | mass density, 318.15 K [kg/m3] | viscosity, 293.15 K [mPa·s] | viscosity, 298.15 K [mPa·s] | viscosity, 303.15 K [mPa·s]
x2 = 0 | – | 1113.3 | – | 1106.8 | – | 1099.1 | – | 21.13 | 17.24 | 14.23
x2 = 0.1037 | 1114.7 | 1111.1 | 1108 | 1104.4 | 1100.5 | 1096.7 | 1093.8 | – | – | –
x2 = 0.1105 | – | – | – | – | – | – | – | 17.58 | 14.33 | 11.86
x2 = 0.1593 | 1113.6 | – | 1106.9 | – | 1099.3 | 1095.4 | 1092.4 | – | – | –
x2 = 0.2014 | – | – | – | – | – | – | – | 14.95 | 12.19 | 10.14
x2 = 0.2189 | 1111.9 | 1108.3 | 1105.2 | 1101.6 | 1097.6 | 1093.7 | 1090.7 | – | – | –
x2 = 0.2669 | – | 1106.8 | 1103.6 | 1100.1 | – | 1092.1 | – | – | – | –
x2 = 0.3002 | – | – | – | – | – | – | – | 12.4 | 10.18 | 8.45
x2 = 0.3165 | 1108.3 | 1104.8 | 1101.7 | 1098.2 | 1094.2 | 1090.3 | 1087.3 | – | – | –
x2 = 0.3496 | 1106.8 | – | 1100.3 | 1096.8 | 1092.9 | – | 1086 | – | – | –
x2 = 0.3994 | 1104.4 | 1101.1 | 1098 | 1094.4 | 1090.6 | 1086.9 | 1083.9 | – | – | –
x2 = 0.4011 | – | – | – | – | – | – | – | 10.05 | 8.31 | 6.968
x2 = 0.4449 | 1101.8 | 1098.5 | – | 1092.2 | 1088.4 | 1084.6 | 1081.6 | – | – | –
x2 = 0.4969 | – | – | – | – | – | – | – | 8.185 | 6.791 | 5.653
x2 = 0.5061 | 1098 | 1094.8 | 1091.8 | 1088.5 | 1084.7 | 1081.1 | 1078.1 | – | – | –
x2 = 0.5563 | 1094.5 | 1091.4 | 1088.4 | 1085.1 | 1081.3 | 1077.8 | 1074.6 | – | – | –
x2 = 0.6022 | – | – | – | – | – | – | – | 6.297 | 5.208 | 4.396
x2 = 0.6055 | 1090.6 | 1087.4 | 1084.5 | 1081.3 | 1077.6 | 1074 | 1071.1 | – | – | –
x2 = 0.6518 | 1085.7 | 1082.6 | 1079.7 | 1076.5 | 1072.9 | 1069.5 | 1066.3 | – | – | –
x2 = 0.6995 | – | – | – | – | – | – | – | 4.584 | 3.884 | 3.345
x2 = 0.7001 | 1079.8 | 1076.8 | 1073.7 | 1070.6 | 1067.3 | 1064 | 1060.7 | – | – | –
x2 = 0.7482 | 1072.6 | 1069.7 | 1066.7 | 1063.7 | 1060.6 | 1057.4 | 1054.3 | – | – | –
x2 = 0.7994 | – | – | – | – | – | – | – | 3.122 | 2.682 | 2.328
x2 = 0.8015 | 1063 | 1060.1 | 1057.4 | 1054.5 | 1051.5 | 1048.4 | 1045.6 | – | – | –
x2 = 0.8444 | 1052.6 | 1050.2 | 1048 | 1045.5 | 1042.6 | 1039.6 | 1037.1 | – | – | –
x2 = 0.8997 | – | – | – | – | – | – | – | 1.918 | 1.664 | 1.446
x2 = 0.901 | 1036.4 | 1034.6 | 1032.8 | 1030.7 | 1028 | 1025.4 | 1023.5 | – | – | –

OCCCCO [1,4-butanediol] + O
Details | mass density, 288.15 K [kg/m3] | mass density, 293.15 K [kg/m3] | mass density, 298.15 K [kg/m3] | mass density, 303.15 K [kg/m3] | mass density, 308.15 K [kg/m3] | mass density, 313.15 K [kg/m3] | mass density, 318.15 K [kg/m3] | viscosity, 293.15 K [mPa·s] | viscosity, 298.15 K [mPa·s] | viscosity, 303.15 K [mPa·s]
x2 = 0 | 1018.6 | 1016.3 | 1012.9 | 1009.9 | 1006.9 | 1003.2 | 1000.8 | 90.7 | 69.89 | 55.24
x2 = 0.0992 | 1020.8 | 1018.3 | 1014.8 | 1011.8 | 1008.9 | 1005.2 | 1002.6 | – | – | –
x2 = 0.1257 | – | – | – | – | – | – | – | 75.28 | 57.95 | 45.05
x2 = 0.152 | 1021.8 | 1019.3 | 1015.8 | 1012.8 | 1009.8 | 1006.1 | 1003.4 | – | – | –
x2 = 0.2039 | 1022.8 | 1020.3 | 1016.7 | 1013.7 | 1010.6 | 1006.9 | 1004.2 | – | – | –
x2 = 0.2513 | 1023.6 | 1021.1 | 1017.6 | 1014.5 | 1011.4 | 1007.6 | 1004.9 | – | – | –
x2 = 0.2783 | – | – | – | – | – | – | – | 58.11 | 44.52 | 33.59
x2 = 0.3003 | 1024.5 | 1021.9 | 1018.3 | 1015.2 | 1012.1 | 1008.3 | 1005.6 | – | – | –
x2 = 0.3033 | – | – | – | – | – | – | – | 54.65 | 42 | 31.63
x2 = 0.3534 | 1025.3 | 1022.7 | 1019.1 | 1015.9 | 1012.8 | 1009 | 1006.3 | – | – | –
x2 = 0.4009 | – | – | – | – | – | – | – | 44.04 | 33.94 | 25.07
x2 = 0.4399 | 1026.2 | 1023.6 | 1020 | 1016.8 | 1013.6 | 1009.8 | 1007.1 | – | – | –
x2 = 0.4482 | 1026.6 | 1024 | 1020.3 | 1017.1 | 1013.9 | 1010.1 | 1007.3 | – | – | –
x2 = 0.5008 | – | – | – | – | – | – | – | 33.85 | 25.34 | 18.65
x2 = 0.5011 | 1027.2 | 1024.5 | 1020.8 | 1017.7 | 1014.5 | 1010.6 | 1007.8 | – | – | –
x2 = 0.5515 | 1027.6 | 1025 | 1021.1 | 1017.9 | 1014.8 | 1010.9 | 1008.1 | – | – | –
x2 = 0.6114 | 1027.7 | 1025.1 | 1021.3 | 1018.2 | 1015.1 | 1011.2 | 1008.3 | – | – | –
x2 = 0.6527 | 1027.6 | 1025 | 1021.3 | 1018.1 | 1015.1 | 1011.2 | 1008.4 | – | – | –
x2 = 0.6662 | – | – | – | – | – | – | – | 19.58 | 13.9 | 10.11
x2 = 0.7003 | – | – | – | – | – | – | – | 16.6 | 11.57 | 8.774
x2 = 0.7005 | 1027.2 | 1024.5 | 1021 | 1017.8 | 1014.8 | 1011 | 1008.3 | – | – | –
x2 = 0.7501 | 1026.3 | 1023.6 | 1020.1 | 1016.9 | 1013.9 | 1010.3 | 1007.4 | – | – | –
x2 = 0.7998 | 1024.2 | 1021.5 | 1018.3 | 1015.3 | 1012.5 | 1008.9 | 1006.2 | – | – | –
x2 = 0.8013 | – | – | – | – | – | – | – | 9.634 | 6.814 | 5.035
x2 = 0.8492 | 1021.3 | 1018.9 | 1015.8 | 1012.9 | 1010.2 | 1007.1 | 1004 | – | – | –
x2 = 0.8979 | – | – | – | – | – | – | – | 4.127 | 3.267 | 2.369
x2 = 0.9001 | 1015.9 | 1014.1 | 1011.7 | 1009.2 | 1006.7 | 1003.6 | 1000.9 | – | – | –
x2 = 0.9488 | 1008.1 | 1006.7 | 1004.7 | 1003.3 | 1001.1 | 998.7 | 996.2 | – | – | –

OCCCCCO [1,5-pentanediol] + O
Details | mass density, 288.15 K [kg/m3] | mass density, 293.15 K [kg/m3] | mass density, 298.15 K [kg/m3] | mass density, 303.15 K [kg/m3] | mass density, 308.15 K [kg/m3] | mass density, 313.15 K [kg/m3] | mass density, 318.15 K [kg/m3] | viscosity, 293.15 K [mPa·s] | viscosity, 298.15 K [mPa·s] | viscosity, 303.15 K [mPa·s]
x2 = 0 | 992.2 | 989.2 | 986.2 | 983.2 | 980.3 | 977.4 | 974.8 | 118.7 | 86.79 | 68.3
x2 = 0.1326 | 995.2 | 992.1 | 989 | 985.9 | 982.9 | 979.9 | 977.3 | – | – | –
x2 = 0.2201 | 997 | 993.9 | 990.8 | 987.7 | 984.7 | 981.7 | 979 | – | – | –
x2 = 0.2345 | 997.3 | 994.2 | 991 | 988 | 985 | 982 | 979.3 | – | – | –
x2 = 0.2586 | – | – | – | – | – | – | – | 92.52 | 70.36 | 54.61
x2 = 0.3 | – | – | – | – | – | – | – | 85.43 | 65.59 | 51.03
x2 = 0.3001 | 998.6 | 995.5 | 992.4 | 989.3 | 986.3 | 983.3 | 980.6 | – | – | –
x2 = 0.406 | 1000.7 | 997.6 | 994.5 | 991.4 | 988.5 | 985.5 | 982.8 | – | – | –
x2 = 0.4864 | – | – | – | – | – | – | – | 51.43 | 39.51 | 31
x2 = 0.4969 | 1002.6 | 999.5 | 996.4 | 993.4 | 990.5 | 987.6 | 985 | 49.66 | 38.56 | 30.24
x2 = 0.5262 | 1003.2 | 1000.2 | 997.1 | 994.1 | 991.2 | 988.3 | 985.7 | – | – | –
x2 = 0.5488 | 1003.7 | 1000.7 | 997.7 | 994.7 | 991.8 | 988.9 | 986.3 | – | – | –
x2 = 0.6032 | 1004.8 | 1001.9 | 998.9 | 996 | 993.1 | 990.2 | 987.6 | – | – | –
x2 = 0.6777 | – | – | – | – | – | – | – | 25.01 | 19.75 | 15.78
x2 = 0.7012 | 1006.6 | 1003.8 | 1000.9 | 998 | 995.2 | 992.3 | 989.8 | – | – | –
x2 = 0.7611 | – | – | – | – | – | – | – | 16.1 | 12.71 | 10.16
x2 = 0.7745 | 1007.1 | 1004.6 | 1001.9 | 999.1 | 996.4 | 993.7 | 991.2 | – | – | –
x2 = 0.8051 | 1007 | 1004.6 | 1002.1 | 999.5 | 996.7 | 994.1 | 991.6 | – | – | –
x2 = 0.8474 | – | – | – | – | – | – | – | 8.205 | 6.627 | 5.439
x2 = 0.8998 | 1005.3 | 1003.2 | 1000.9 | 998.6 | 996.3 | 993.9 | 992 | – | – | –
x2 = 0.9205 | – | – | – | – | – | – | – | 3.733 | 3.103 | 2.615
